Assay results as given in ChEMBL document CHEMBL1201862, “PubChem BioAssay data set” (2004).
Calls of active or inactive are those of the source.

Tests used:
[1] = target: T1, Replicative DNA helicase DnaB (Mycobacterium tuberculosis, UniProt P9WMR3); test: DnaB intein splicing inhibitors, dose response, biochemical, cell-free fluorescence (AID 449749); format: functional
T1 sequence (P9WMR3 whole entry): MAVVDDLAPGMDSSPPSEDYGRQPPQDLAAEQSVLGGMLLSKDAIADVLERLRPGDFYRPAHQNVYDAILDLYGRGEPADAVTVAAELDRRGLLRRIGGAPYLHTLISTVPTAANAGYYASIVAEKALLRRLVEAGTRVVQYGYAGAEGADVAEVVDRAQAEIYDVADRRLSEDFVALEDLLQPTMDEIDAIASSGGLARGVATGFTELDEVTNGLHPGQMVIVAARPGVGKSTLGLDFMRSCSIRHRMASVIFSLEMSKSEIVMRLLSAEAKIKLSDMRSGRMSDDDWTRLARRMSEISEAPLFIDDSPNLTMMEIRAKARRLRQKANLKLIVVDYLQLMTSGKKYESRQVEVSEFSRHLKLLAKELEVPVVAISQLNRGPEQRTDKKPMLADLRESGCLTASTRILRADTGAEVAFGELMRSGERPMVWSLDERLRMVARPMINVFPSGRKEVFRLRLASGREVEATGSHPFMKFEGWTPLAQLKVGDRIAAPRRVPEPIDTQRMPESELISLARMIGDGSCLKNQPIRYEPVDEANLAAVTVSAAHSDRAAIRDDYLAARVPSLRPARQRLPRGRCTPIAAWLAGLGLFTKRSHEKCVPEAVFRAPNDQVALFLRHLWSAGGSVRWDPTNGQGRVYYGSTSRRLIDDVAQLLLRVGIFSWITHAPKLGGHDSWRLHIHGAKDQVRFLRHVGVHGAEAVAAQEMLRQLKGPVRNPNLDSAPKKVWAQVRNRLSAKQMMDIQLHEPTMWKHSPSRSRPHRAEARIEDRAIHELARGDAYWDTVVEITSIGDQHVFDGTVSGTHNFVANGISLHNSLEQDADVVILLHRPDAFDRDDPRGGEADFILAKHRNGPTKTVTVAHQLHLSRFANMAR

[2] = target: T2, Protein RecA (Mycobacterium tuberculosis, UniProt P9WHJ3); test: Fluorescence Cell-Free Homogeneous Dose Retest to Identify Inhibitors of RecA-Intein Splicing Activity. [Related pubchem assays (depositor defined):AID2097, AID2223, AID489010, AID492950]; format: functional
T2 sequence (P9WHJ3 whole entry): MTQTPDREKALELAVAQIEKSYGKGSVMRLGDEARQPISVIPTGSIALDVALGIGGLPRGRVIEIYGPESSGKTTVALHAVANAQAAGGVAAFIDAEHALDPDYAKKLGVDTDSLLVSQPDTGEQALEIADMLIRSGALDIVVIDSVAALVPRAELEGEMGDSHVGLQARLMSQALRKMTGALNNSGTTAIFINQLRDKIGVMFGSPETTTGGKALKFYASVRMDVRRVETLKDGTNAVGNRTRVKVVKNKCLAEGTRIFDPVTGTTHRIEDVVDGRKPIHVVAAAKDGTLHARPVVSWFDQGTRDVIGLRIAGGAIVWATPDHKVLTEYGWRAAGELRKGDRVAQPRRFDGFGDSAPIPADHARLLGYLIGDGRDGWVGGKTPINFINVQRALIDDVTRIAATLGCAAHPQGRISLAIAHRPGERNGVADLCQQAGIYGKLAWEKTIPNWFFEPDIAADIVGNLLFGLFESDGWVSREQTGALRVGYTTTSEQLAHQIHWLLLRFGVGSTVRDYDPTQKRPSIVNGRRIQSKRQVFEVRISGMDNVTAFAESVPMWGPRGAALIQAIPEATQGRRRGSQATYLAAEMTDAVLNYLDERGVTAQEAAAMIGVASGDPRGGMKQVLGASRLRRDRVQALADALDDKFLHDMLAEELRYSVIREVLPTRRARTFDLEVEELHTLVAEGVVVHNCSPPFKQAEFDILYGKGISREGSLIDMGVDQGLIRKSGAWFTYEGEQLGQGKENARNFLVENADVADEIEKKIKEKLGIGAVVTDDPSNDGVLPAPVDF

[3] = NIH-3T3 fibroblast cytotoxicity, dose response, cytotoxicity control, cell-based, fluorescence, Alamar Blue, secondary assay (AID 2327); format: functional;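 note: NIH-3T3 mouse fibroblasts cultured with fluconazole at 8 µg/mL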
[4] = fluconazole-exposed Candida albicans growth modulators – fluorescence, retest, confirmation (AID 2467); format: functional, cell-based
[5] = Trypanosoma cruzi growth suppression in host cells – NIH3T3 host cells, beta-gal luminescence, confirmation (AID 2044); format: functional, cell-based;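 note: intracellular parasites grown in NIH/3T3 mouse fibroblasts as host cells; luminescent beta-galactosidase reporter signal from transgenic T. cruzi replicating inside host cells; inhibitors lower the luminescence signal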
[6] = viability of PTEN-deleted HCT116 cells – cell-based, HCT116 PTEN knockout, dose response (AID 1047); format: functional;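 note: HCT116 colon tumor cells with PTEN knocked out; cells exposed to compound for 60 hours before readout; potency for loss of cell viability measured by luminescence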
[7] = NIH3T3 cell viability loss – ATP luminescence, mouse fibroblasts, counter-screen, dose response (AID 2010); format: functional, cell-based;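 note: cells exposed to compound for about 90 hours before reading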
[8] = viability of HCT116 lacking mutant beta-catenin – cell-based, human colon tumor, dose response (AID 1045); format: functional;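 note: HCT116 colon tumor cells with beta catenin knocked out; cells exposed to compound for 60 hours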
[9] = microbe, parasite or virus in culture; format: functional; conditions: Mycobacterium tuberculosis
[10] = target: T3, Heat shock factor protein 1 (Mus musculus, UniProt P38532); test: enhancement of HSF1-driven luciferase signal – cell-based, NIH3T3, luminescence, dose retest, confirmation (AID 435004); format: functional;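 note: stress induced by proteasome inhibitor MG132 added 30 min after compound; luciferase reporter driven by HSF1 response element in NIH3T3 cells; actives raise luminescence as potentiators of the MG132 stress response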
T3 sequence (P38532 whole entry): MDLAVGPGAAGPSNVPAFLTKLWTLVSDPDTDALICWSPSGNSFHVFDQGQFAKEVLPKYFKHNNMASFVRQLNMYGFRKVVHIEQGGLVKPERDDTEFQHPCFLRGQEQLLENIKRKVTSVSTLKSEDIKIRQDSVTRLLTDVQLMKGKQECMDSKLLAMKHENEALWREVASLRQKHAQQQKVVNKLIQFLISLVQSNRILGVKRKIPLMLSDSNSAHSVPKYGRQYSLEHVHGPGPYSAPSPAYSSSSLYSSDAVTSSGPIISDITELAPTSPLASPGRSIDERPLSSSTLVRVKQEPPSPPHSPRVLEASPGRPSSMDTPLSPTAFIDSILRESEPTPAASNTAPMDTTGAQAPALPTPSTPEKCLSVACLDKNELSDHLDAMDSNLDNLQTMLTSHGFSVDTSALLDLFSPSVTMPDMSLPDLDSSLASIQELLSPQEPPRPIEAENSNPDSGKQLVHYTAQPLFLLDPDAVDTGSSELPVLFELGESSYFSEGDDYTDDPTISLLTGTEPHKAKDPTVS

[11] = reduction of Shn3 3'UTR-driven luciferase in osteoblasts – cell-based, Clone20 osteoblasts, firefly luciferase, cherry-picked, dose response (AID 624132); format: functional;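 note: firefly luciferase luminescence from reporter carrying the Shn3 3'UTR in osteoblasts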
[12] = tested on: Streptococcus sp. 'group A'; test: Streptococcus pyogenes SK(-)GAS viability under kanamycin – luminescence, BacTiterGlo, confirmation, counter-screen for streptokinase expression inhibitor project, dose response (AID 1900); format: functional, organism-based
[13] = target: T4, Streptokinase A (Streptococcus pyogenes serotype M1, UniProt P10520); test: viability-normalized secreted streptokinase activity reduction – plasminogen activation absorbance, OD405, dose response (AID 1914); format: functional, Streptococcus pyogenes M1 GAS;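 note: secreted streptokinase activity via plasminogen activation per viability signal from cell pellet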
T4 sequence (P10520 whole entry): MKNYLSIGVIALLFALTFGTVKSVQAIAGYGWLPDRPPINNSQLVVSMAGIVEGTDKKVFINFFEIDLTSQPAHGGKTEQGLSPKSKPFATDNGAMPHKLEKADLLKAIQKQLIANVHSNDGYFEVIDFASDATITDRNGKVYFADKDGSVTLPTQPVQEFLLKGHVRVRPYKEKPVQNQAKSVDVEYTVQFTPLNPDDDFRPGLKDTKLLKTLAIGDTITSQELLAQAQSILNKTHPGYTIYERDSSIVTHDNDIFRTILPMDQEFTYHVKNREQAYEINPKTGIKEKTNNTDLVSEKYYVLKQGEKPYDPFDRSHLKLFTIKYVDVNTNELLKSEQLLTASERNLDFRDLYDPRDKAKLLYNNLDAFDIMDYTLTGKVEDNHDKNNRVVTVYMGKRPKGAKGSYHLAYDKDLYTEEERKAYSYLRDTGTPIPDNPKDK

[14] = tested on: Streptococcus; test: GAS UMAA2166 growth inhibition – luminescence, BacTiterGlo, counter-screen for streptokinase expression inhibitor project, dose response (AID 1915); format: functional, organism-based;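 note: potency for reduction of bacterial viability or growth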
[15] = Luminescence Cell-Based Dose Retest to Confirm Inhibitors of Cancer Stem Cells. [Related pubchem assays (depositor defined):AID2717, AID2721]; format: functional; conditions: Homo sapiens
[16] = P. falciparum Dd2 growth inhibitors, dose response, SYBR Green, cherry-picked samples (AID 1159567); format: functional, cell-based

| SMILES | AC50 [1] | EC50 [2] | AC50 [16] | further results |
| --- | --- | --- | --- | --- |
| COc1ccc(S(=O)(=O)c2cnc3ccccc3n2)cc1 | 54.1 µM (active) | 16.4 µM (active) | – | – |
| CCn1c(COc2cccc3ccccc23)nnc1SCC(N)=O | 273 µM (active) | > 380 µM (inactive) | – | – |
| O=c1cc(-c2c(F)c(F)c(F)c(F)c2F)oc2c(F)c(F)c(F)c(F)c12 | 7.17 µM (active) | 2.92 µM (active) | – | EC50 [3]: 2.66 µM (inconclusive); EC50 [4]: 0.52 µM (active); EC50 [5]: 0.663 µM (active); EC50 [6]: 5.95 µM (active); EC50 [7]: 1.04 µM (active); EC50 [8]: 3.37 µM (active) |
| CC(C(=O)NC(=O)NC1CCCCC1)N(C)CC(=O)Nc1ccc(F)c(F)c1F (stereo not given) | – | – | – | CC50 [9]: 25.8 µM (active) |
| Cc1ccc(C(C(=O)NCC2CCCO2)N(Cc2ccccc2)C(=O)c2ccc(-c3ccccc3)[nH]2)o1 (stereo not given) | – | – | – | CC50 [9]: > 40 µM (active) |
| Cc1ccc2nc(-c3cccs3)oc(=O)c2c1 | 117 µM (active) | 60.5 µM (active) | – | – |
| CCOc1cc(/C=C2/C(=N)N3C(=NC2=O)SN=C3S(=O)(=O)C(C)C)ccc1OC(=O)c1ccco1 | > 380 µM (inactive) | 18.6 µM (active) | – | – |
| Cc1cc(NC(=O)c2cc(-c3ccncc3)nc3c(C)cccc23)no1 | – | – | – | CC50 [9]: 9.08 µM (active) |
| COC(=O)C(C)Sc1ncnc2c1nnn2-c1ccc(F)cc1 (stereo not given) | 5.57 µM (active) | 5.09 µM (active) | – | EC50 [10]: 11.6 µM (active) |
| NC(=O)CC[C@@H]1NC(=O)[C@H](CO)NC(=O)c2cc([N+](=O)[O-])cc(I)c2NCC[C@@H](C(N)=O)NC1=O | 47.5 µM (active) | 13.3 µM (active) | – | – |
| Cc1nn(Cc2ccccc2)c2c1C(c1cccnc1)C(C#N)=C(N)O2 (stereo not given) | 8.8 µM (active) | 2.78 µM (active) | – | – |
| CNS(=O)(=O)c1cccc(C(=O)OCc2cc(C(C)=O)ccc2OC)c1 | – | – | – | AC50 [11]: 11.2 µM (active) |
| CC(C)S(=O)(=O)C1=NSC2=NC(=O)/C(=C\c3ccc(OC(=O)c4ccco4)cc3)C(=N)N21 | 17 µM (active) | 10.9 µM (active) | – | – |
| CC(C)(C)[C@@H]1CCC(=O)N(CC[C@H](Sc2ccccc2)c2ccccc2)CC1 | – | – | – | EC50 [12]: 6.49 µM (active); EC50 [13]: > 150 µM (not active); EC50 [14]: 5.87 µM (active); AC50 [15]: 3.92 µM (active) |
| CC1=NN(c2ccc(N)cc2)C(=O)C1 | 2.41 µM (active) | 1.78 µM (active) | – | – |
| O=C1NC(c2ccc(-c3ccccc3[N+](=O)[O-])o2)C(C(=O)c2ccc(F)cc2)C(O)(C(F)(F)F)N1 (stereo not given) | 13.3 µM (active) | > 380 µM (inconclusive) | – | – |
| Cc1nc2c(-c3ccc(F)cc3)c(C)nn2c(O)c1Cl | 31.1 µM (active) | 11 µM (active) | – | – |
| Cc1cc(C(=O)N/N=C\C(Br)=C\c2ccccc2)c(C)o1 | – | – | – | CC50 [9]: > 40 µM (active) |
| C/C(CC(=O)Nc1ccc(Cl)cc1C(F)(F)F)=N\NC(N)=S | – | – | – | CC50 [9]: > 40 µM (active) |
| COc1ccc2c3c([nH]c2c1)[C@H](CO)N(Cc1ccccc1Cl)CC31CN(C(=O)C2CC2)C1 | – | – | 5.65 µM (active) | – |
| C/C=C/c1ccc([C@@H]2[C@@H](CO)N(CC3CCCC3)C23CN(S(=O)(=O)CC)C3)cc1 | – | – | 4.7 µM (active) | – |
| C[C@H]1CN([C@@H](C)CO)C(=O)c2cc(NC(=O)Cc3cn(C)c4ccccc34)ccc2O[C@H]1CN(C)S(=O)(=O)c1cccs1 | – | – | 6.48 µM (active) | – |
| COc1ccc2c3c([nH]c2c1)[C@@H](CO)N(Cc1ccccc1F)CC31CN(C(=O)C2CCC2)C1 | – | – | 7.2 µM (active) | – |
| C[C@@H]1CN([C@@H](C)CO)C(=O)c2c(c3ccccc3n2C)-c2ccccc2CO[C@H]1CN(C)Cc1cccc(C(F)(F)F)c1 | – | – | 3.05 µM (active) | – |
| CCCC(=O)N1CCC2(CC1)CN(Cc1cccnc1)[C@@H](CO)c1[nH]c3cc(OC)ccc3c12 | – | – | 5.19 µM (active) | – |
| O=C(Cc1ccncc1)N1CC[C@@H]2[C@@H](CO)Nc3ccc(-c4cccc(F)c4)cc3[C@@H]21 | – | – | 3.43 µM (active) | – |
| C[C@@H]1CN([C@@H](C)CO)C(=O)c2c(c3ccccc3n2C)-c2ccccc2CO[C@H]1CN(C)C(=O)Nc1ccc(-c2ccccc2)cc1 | – | – | 3.77 µM (active) | – |
| COc1ccc(-c2ccc([C@@H]3[C@@H](CO)N4C(=O)CN(C(=O)C5CCCC5)C[C@@H]34)cc2)cc1 | – | – | 4.83 µM (active) | – |
